In patent US20260262643A1, “HERBICIDAL BENZOXAZINES” (FMC CORPORATION, priority 2022, published 2026):

Columns and labels:
[1] = system: barnyardgrass; test: Test C preemergence; type: in vivo, Echinochloa crusgalli
How it was run: (§1)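 Visual injury ratings on a 0–100 scale (100 = complete control) were made against untreated controls 10 days after treatment in the greenhouse. Compounds, formulated with surfactant in non-phytotoxic solvent, were sprayed on soil preemergence or onto one- to two-leaf plants 2–10 cm tall postemergence.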

[2] = system: blackgrass; test: Test C preemergence; type: in vivo, Alopecurus myosuroides
How it was run: as §1

[3] = system: corn; test: Test C preemergence; type: in vivo, Zea mays
How it was run: as §1

[4] = system: green foxtail; test: Test C preemergence; type: in vivo, Setaria viridis
How it was run: as §1

[5] = system: kochia; test: Test C preemergence; type: in vivo, Bassia scoparia
How it was run: as §1

[6] = system: oat, wild; test: Test C preemergence; type: in vivo, Avena fatua
How it was run: as §1

[7] = system: pigweed, palmer; test: Test C preemergence; type: in vivo, Amaranthus palmeri
How it was run: as §1

[8] = system: ragweed; test: Test C preemergence; type: in vivo, Ambrosia artemisiifolia
How it was run: as §1

[9] = system: ryegrass, Italian; test: Test C preemergence; type: in vivo, Lolium multiflorum
How it was run: as §1

[10] = system: soybean; test: Test C preemergence; type: in vivo, Glycine max
How it was run: as §1

[11] = system: wheat; test: Test C preemergence; type: in vivo, Triticum aestivum
How it was run: as §1

[12] = system: barnyardgrass; test: Test C postemergence; type: in vivo, Echinochloa crusgalli; conditions: 10 days, 0 to 100 scale (0 no effect, 100 complete control)
How it was run: as §1

[13] = system: blackgrass; test: Test C postemergence; type: in vivo, Alopecurus myosuroides; conditions: 10 days, 0 to 100 scale (0 no effect, 100 complete control)
How it was run: as §1

[14] = system: corn; test: Test C postemergence; type: in vivo, Zea mays; conditions: 10 days, 0 to 100 scale (0 no effect, 100 complete control)
How it was run: as §1

[15] = system: green foxtail; test: Test C postemergence; type: in vivo, Setaria viridis; conditions: 10 days, 0 to 100 scale (0 no effect, 100 complete control)
How it was run: as §1

[16] = system: kochia; test: Test C postemergence; type: in vivo, Bassia scoparia; conditions: 10 days, 0 to 100 scale (0 no effect, 100 complete control)
How it was run: as §1

[17] = system: oat, wild; test: Test C postemergence; type: in vivo, Avena fatua; conditions: 10 days, 0 to 100 scale (0 no effect, 100 complete control)
How it was run: as §1

[18] = system: pigweed, palmer; test: Test C postemergence; type: in vivo, Amaranthus palmeri; conditions: 10 days, 0 to 100 scale (0 no effect, 100 complete control)
How it was run: as §1

[19] = system: ragweed; test: Test C postemergence; type: in vivo, Ambrosia artemisiifolia; conditions: 10 days, 0 to 100 scale (0 no effect, 100 complete control)
How it was run: as §1

[20] = system: ryegrass, Italian; test: Test C postemergence; type: in vivo, Lolium multiflorum; conditions: 10 days, 0 to 100 scale (0 no effect, 100 complete control)
How it was run: as §1

[21] = system: soybean; test: Test C postemergence; type: in vivo, Glycine max; conditions: 10 days, 0 to 100 scale (0 no effect, 100 complete control)
How it was run: as §1

[22] = system: wheat; test: Test C postemergence; type: in vivo, Triticum aestivum; conditions: 10 days, 0 to 100 scale (0 no effect, 100 complete control)
How it was run: as §1

[23] = system: galium; test: Test C postemergence; type: in vivo, Galium aparine; conditions: 10 days, 0 to 100 scale (0 no effect, 100 complete control)
How it was run: as §1

[24] = system: horseweed; test: Test C postemergence; type: in vivo, Erigeron canadensis; conditions: 10 days, 0 to 100 scale (0 no effect, 100 complete control)
How it was run: as §1

[25] = system: barnyardgrass; test: Test D flooded paddy test; type: in vivo, Echinochloa crus-galli; conditions: 250 g ai/ha, applied to paddy water, visual rating after 13 to 14 days, scale 0 to 100 (0 no effect, 100 complete control)
How it was run: (§2)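 Visual ratings from 0, meaning no effect, to 100, meaning complete control, were assigned against untreated controls 13 to 14 days after compounds were added to the floodwater of pots kept 3 cm deep, with plants at the 2-leaf stage.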

[26] = system: ducksalad; test: Test D flooded paddy test; type: in vivo, Heteranthera limosa; conditions: 250 g ai/ha, applied to paddy water, visual rating after 13 to 14 days, scale 0 to 100 (0 no effect, 100 complete control)
How it was run: as §2

[27] = system: rice; test: Test D flooded paddy test; type: in vivo, Oryza sativa; conditions: 250 g ai/ha, applied to paddy water, visual rating after 13 to 14 days, scale 0 to 100 (0 no effect, 100 complete control)
How it was run: as §2

[28] = system: sedge, umbrella; test: Test D flooded paddy test; type: in vivo, Cyperus difformis; conditions: 250 g ai/ha, applied to paddy water, visual rating after 13 to 14 days, scale 0 to 100 (0 no effect, 100 complete control)
How it was run: as §2

[29] = 500 g ai/ha, preemergence, 0 to 100 scale (0 no effect, 100 complete control)
[30] = Preemergence, 125 g ai/ha, 0 to 100 scale, 0 no effect, 100 complete control

## Cc1ncn(-c2ccc(F)c(C(=O)N3C[C@H](C)Oc4c(C)cccc43)c2)n1 [Compound 361]
[1]; [29]
  Barnyardgrass plant response rating: 90
[1]; [30]
  Plant response rating, Barnyardgrass: 80
[2]; [29]
  Blackgrass plant response rating: 60
[2]; [30]
  Plant response rating, Blackgrass: 40
[3]; [29]
  Corn plant response rating: 10
[3]; [30]
  Plant response rating, Corn: 0
[4]; [29]
  Foxtail, Green plant response rating: 100
[4]; [30]
  Plant response rating, Foxtail, Green: 100
[5]; [29]
  Kochia plant response rating: 90
[5]; [30]
  Plant response rating, Kochia: 80
[6]; [29]
  Oat, Wild plant response rating: 50
[6]; [30]
  Plant response rating, Oat, Wild: 0
[7]; [29]
  Pigweed, Palmer plant response rating: 100
[7]; [30]
  Plant response rating, Pigweed, Palmer: 90
[8]; [29]
  Ragweed plant response rating: 70
[8]; [30]
  Plant response rating, Ragweed: 50
[9]; [29]
  Ryegrass, Italian plant response rating: 80
[9]; [30]
  Plant response rating, Ryegrass, Italian: 80
[10]; [29]
  Soybean plant response rating: 100
[10]; [30]
  Plant response rating, Soybean: 100
[11]; [29]
  Wheat plant response rating: 70
[11]; [30]
  Plant response rating, Wheat: 50
[12]; 500 g ai/ha, postemergence
  Plant response rating, Barnyardgrass: 90
[12]; Postemergence, 125 g ai/ha
  Plant response rating, Barnyardgrass: 70
[13]; 500 g ai/ha, postemergence
  Plant response rating, Blackgrass: 90
[13]; Postemergence, 125 g ai/ha
  Plant response rating, Blackgrass: 80
[14]; 500 g ai/ha, postemergence
  Plant response rating, Corn: 50
[14]; Postemergence, 125 g ai/ha
  Plant response rating, Corn: 20
[15]; 500 g ai/ha, postemergence
  Plant response rating, Foxtail, Green: 90
[15]; Postemergence, 125 g ai/ha
  Plant response rating, Foxtail, Green: 90
[16]; 500 g ai/ha, postemergence
  Plant response rating, Kochia: 80
[16]; Postemergence, 125 g ai/ha
  Plant response rating, Kochia: 70
[17]; 500 g ai/ha, postemergence
  Plant response rating, Oat, Wild: 80
[17]; Postemergence, 125 g ai/ha
  Plant response rating, Oat, Wild: 30
[18]; 500 g ai/ha, postemergence
  Plant response rating, Pigweed, Palmer: 60
[18]; Postemergence, 125 g ai/ha
  Plant response rating, Pigweed, Palmer: 20
[19]; 500 g ai/ha, postemergence
  Plant response rating, Ragweed: 60
[19]; Postemergence, 125 g ai/ha
  Plant response rating, Ragweed: 60
[20]; 500 g ai/ha, postemergence
  Plant response rating, Ryegrass, Italian: 90
[20]; Postemergence, 125 g ai/ha
  Plant response rating, Ryegrass, Italian: 80
[21]; 500 g ai/ha, postemergence
  Plant response rating, Soybean: 100
[21]; Postemergence, 125 g ai/ha
  Plant response rating, Soybean: 100
[22]; 500 g ai/ha, postemergence
  Plant response rating, Wheat: 80
[22]; Postemergence, 125 g ai/ha
  Plant response rating, Wheat: 40
[23]; 500 g ai/ha, postemergence
  Plant response rating, Galium: 100
[23]; Postemergence, 125 g ai/ha
  Plant response rating, Galium: 100
[24]; 500 g ai/ha, postemergence
  Plant response rating, Horseweed: 10
[24]; Postemergence, 125 g ai/ha
  Plant response rating, Horseweed: 0
[25]
  Plant response rating, Barnyardgrass (Flood): 30
[26]
  Plant response rating, Ducksalad (Flood): 70
[27]
  Plant response rating, Rice (Flood): 15
[28]
  Plant response rating, Sedge, Umbrella (Flood): 95
